The text below walks through data of patent US12285431B2, “Treatment of Rb-negative tumors using topoisomerase inhibitors in combination with cyclin dependent kinase 4/6 inhibitors” (G1 Therapeutics, Inc., priority 2014, dated 2025).

For one data set, the target named is CDK4/CyclinD1 (Homo sapiens, UniProt P11802). The data set can be described thus: CDK4/cyclinD1 kinase assay (Nanosyn, Caliper microfluidic kinase detection). It is filed as biochemical. The following applies: read-out: CDK4/CycD1 IC50. The method, then: The assays were performed using microfluidic kinase detection technology (Caliper Assay Platform). The compounds were tested in 12-point dose-response format in singlicate at Km for ATP. Phosphoacceptor substrate peptide concentration used was 1 μM for all assays and Staurosporine was used as the reference compound for all assays. Specifics of each assay are as described below:
CDK4/CyclinD1: Enzyme concentration: 1 nM; ATP concentration: 200 μM; Incubation time: 10 hr.

The test system of a further data set is HS68 cells. The data set can be described thus: G1 arrest (cellular G1 and S-phase) assay, propidium iodide flow cytometry. It is filed as cell-based, human. As to the method: HS68 cells (human skin fibroblast cell line (Rb-positive)) were stained with propidium iodide staining solution and run on Dako Cyan Flow Cytometer. The fraction of cells in G0-G1 DNA cell cycle versus the fraction in S-phase DNA cell cycle was determined using FlowJo 7.2.2 analysis.
The compounds listed in Table 1 were tested for their ability to arrest HS68 cells at the G1 phase of the cell cycle.
A general note: Flow cytometry measures light scatter and fluorescence of single cells or particles in a stream.

The next data set deals with CDK2/CyclinE (Homo sapiens, UniProt P24941). The data set can be described thus: CDK2/cyclinE kinase assay (Nanosyn, Caliper). Conditions: Table 2. It is filed as biochemical.
Data set [1] concerns small cell lung cancer cell lines. Conditions: Hamilton et al., cited from earlier work; for cytotoxic effect in combination with topotecan (in words): Journal of Cancer Therapy (2013); for cytotoxic / chemosensitizing effect in combination with various camptothecin derivatives (in words): Molecules (2014), rubitecan, 9AC, topotecan, SN38, CPT109.
Data set [2] deals with H69 (human small cell lung cancer, Rb-negative) cells. The data set is described as follows: Cellular proliferation assay (CellTiter-Glo), H69. The following applies: NCI-H69, 96 h, cell viability after four days. It is filed as cell-based. As to the method:
(§1) Further cellular proliferation assays were conducted using the following cancer cell lines: MCF7 (breast adenocarcinoma—Rb-positive), ZR-75-1 (breast ductal carcinoma—Rb-positive), H69 (human small cell lung cancer—Rb-negative) cells, or A2058 (human metastatic melanoma cells—Rb-negative). These cells were seeded in Costar (Tewksbury, Massachusetts) 3093 96 well tissue culture treated white walled/clear bottom plates. Cells were treated with the compounds of Table 1 as nine point dose response dilution series from 10 uM to 1 nM. Cells were exposed to compounds and then cell viability was determined after either four (H69) or six (MCF7, ZR75-1, A2058) days as indicated using the CellTiter-Glo® luminescent cell viability assay (CTG; Promega, Madison, Wisconsin, United States of America) following the manufacturer's recommendations. Plates were read on BioTek (Winooski, Vermont) Syngergy2 multi-mode plate reader. The Relative Light Units (RLU) were plotted as a result of variable molar concentration and data was analyzed using Graphpad (LaJolla, California) Prism 5 statistical software to determine the EC50 for each compound.
A general note: In ATP-based viability assays light output follows the ATP content of the culture.

Data set [3] relates to A2058 (human metastatic melanoma cells, Rb-negative). The data set is described as follows: Cellular proliferation assay (CellTiter-Glo), A2058. In kind it is cell-based. Conditions: A2058, 144 h, cell viability after six days. The method, then: as §1
The nature of data set [4]: Mouse pharmacokinetics (oral gavage / intravenous). It is filed as in vivo, mice. The following applies: for AUC 0-inf (uM * h) i.v.: 10 mg/kg intravenous injection; for AUC (uM * h) p.o. / Cmax / Tmax (h) p.o. / t1/2 (h) p.o.: 30 mg/kg oral gavage.
Data set [5] concerns ZR-75-1 (breast ductal carcinoma, Rb-positive). The data set can be described thus: Cellular proliferation assay (CellTiter-Glo), ZR-75-1. In kind it is cell-based. Conditions: Homo sapiens, ZR-75-1, 144 h, cell viability after six days, read-out: ZR75-1 Cellular EC50. The method, then:
as §1

Data set [6] concerns MCF7 (breast adenocarcinoma, Rb-positive). The data set can be described thus: Cellular proliferation assay (CellTiter-Glo), MCF7. It is filed as cell-based. Conditions: Homo sapiens, MCF7, 144 h, cell viability after six days. As to the method: as §1
Data set [7] deals with NCI-H69 SCLC xenograft (Rb-negative). It is filed as in vivo. The text has this:
An Rb-negative model of small cell lung cancer was used in the following example. Briefly, xenografts of National Cancer Institute (NCI) […] cells were grafted onto the mice (Athymic Nude (Crl:NU(NCr)-Foxn1^nu); 6-12 week old females) using the South Texas Accelerated Research Therapeutics (START) Cell-Based Xenograft (START-CBX) tumor model. H69 cells are human small cell lung cancer cells and are Rb-negative.
Data collected from the efficacy study included animal weights, observations and tumor dimensions. This information was used to determine agent tolerability based on weight change and gross physiologic changes and anticancer activity based on tumor growth delay or regression. The designated endpoint for this study was an individual tumor volume of 1 cm^3 or 60 days following treatment initiation.
Tumor fragments from NCI-H69 were harvested from host animals and implanted into immune-deficient mice and the study initiated at a mean tumor volume of approximately 150-250 mm^3.
Additional details of the study are outlined in Table 6 below. […] Tumor size was examined twice per week and the endpoint for this study was Day 59.

[8] abbreviates: Table 2, 12-point dose-response, ATP at Km (200 μM), 10 hr.
[9] abbreviates: Group 6: Compound T vehicle and topotecan 0.6 mg/kg IP qdx5x4.

Read-outs that look alike come from different tables or passages of the source.

Chain of CDK4/CyclinD1 (P11802 whole entry, species assumed): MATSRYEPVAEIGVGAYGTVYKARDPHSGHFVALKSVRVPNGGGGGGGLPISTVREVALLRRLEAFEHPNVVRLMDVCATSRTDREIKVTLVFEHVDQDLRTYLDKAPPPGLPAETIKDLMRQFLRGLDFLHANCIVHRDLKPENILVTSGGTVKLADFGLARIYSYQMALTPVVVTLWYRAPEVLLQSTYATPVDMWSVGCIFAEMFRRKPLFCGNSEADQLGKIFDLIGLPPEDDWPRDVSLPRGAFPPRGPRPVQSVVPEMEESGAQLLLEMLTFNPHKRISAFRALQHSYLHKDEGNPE
Chain of CDK4/CyclinD1 (P24385 whole entry partner, species assumed): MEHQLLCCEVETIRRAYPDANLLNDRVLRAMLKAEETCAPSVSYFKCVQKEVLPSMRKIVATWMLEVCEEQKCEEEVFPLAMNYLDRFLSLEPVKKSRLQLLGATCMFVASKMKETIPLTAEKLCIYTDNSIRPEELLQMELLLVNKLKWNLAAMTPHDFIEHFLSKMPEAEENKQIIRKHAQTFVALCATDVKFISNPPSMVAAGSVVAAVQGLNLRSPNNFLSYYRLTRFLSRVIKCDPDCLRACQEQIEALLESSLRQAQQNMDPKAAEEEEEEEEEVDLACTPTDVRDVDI

For `CCN(CC)C1CCN(c2ccc(Nc3ncc4cc5n(c4n3)C3(CCCCC3)CNC5=O)nc2)C1` (stereo not shown) [UU], the IC50 at CDK4/CyclinD1 was 7.3 nM; at CDK2/CyclinE (ATP 100 μM, 1 hr, read-out: CDK2/CycE IC50), 3960 nM. Moreover, the response in the data set with HS68 cells (HS68 cells) was half-maximal at 300 nM (EC50). Also, the “Fold Selectivity (CDK2/CycE/CDK4)” value at CDK2/CyclinE came to 542.
For `CC[C@H](CO)Nc1nc(NCc2ccccc2)c2ncn(C(C)C)c2n1` [roscovitine], in data set [1], the “cytotoxic effect in combination with topotecan (in words)” value is listed as “synergistic cytotoxic effect” and the “cytotoxic / chemosensitizing effect in combination with various camptothecin derivatives (in words)” value (from here on “cytotoxic / chemosensitizing effect”) is “synergistic cytotoxic effect”.
For `O=C1NCC2(CCCCC2)n2c1cc1cnc(Nc3ccc(N4CCC(N5CCOCC5)CC4)cn3)nc12` [Compound U], the EC50 in the data set with HS68 cells (Homo sapiens, Hs68, HS68 cells) is 25 nM; in data set [2], greater than 3000 nM; in data set [3], greater than 3000 nM; in data set [5], 59 nM; in [6] it was 70 nM. The “AUC 0-inf (uM * h) i.v.” value in data set [4] was determined as 0.76 µM·h. Besides, in [4], the “AUC (uM * h) p.o.” value amounted to 3.3 µM·h. In [4], this compound gave a Cmax of 4.2 µM. Besides, the “Tmax (h) p.o.” value in data set [4] is reported as 0.5 h. The “t1/2 (h) p.o.” value in [4] (30 mg/kg) was determined as 3 h.
Regarding `O=C1NCC2(CCCCC2)n2c1cc1cnc(Nc3ccc(N4CCNCC4)cn3)nc12` [Compound Q], in the data set on HS68 cells (Homo sapiens, Hs68, HS68 cells), the EC50 stood at 100 nM. For the same compound, the 50% effective concentration (EC50) in data set [2] is greater than 3000 nM. In [3], the EC50 was 2610 nM. Further, in data set [4], the “AUC 0-inf (uM * h) i.v.” value was 0.95 µM·h, the “AUC (uM * h) p.o.” value is 0.15 µM·h, the peak level (Cmax) was 0.16 µM and the “Tmax (h) p.o.” value stood at 0.5 h. Further, the “t1/2 (h) p.o.” value in data set [4] was found to be 0.8 h. Moreover, in [5], the EC50 worked out at 35 nM. In data set [6], this compound gave an EC50 of 49 nM.
Take `C[C@H]1CN(c2ccc(Nc3ncc4cc5n(c4n3)C3(CCCCC3)CNC5=O)nc2)CCN1C` [R]: the IC50 on CDK4/CyclinD1 (setting [8]) is 0.5 nM. The EC50 in the data set on HS68 cells (Homo sapiens, Hs68, HS68 cells) was 70 nM; in data set [2] it was greater than 3000 nM; in [3] it was 2630 nM; in [5] it was 50 nM; in data set [6], 36 nM.
With `Cn1cnc2c(NCc3ccccc3)nc(NCCO)nc21` [olomoucine], in data set [1], the “cytotoxic effect in combination with topotecan (in words)” value is reported as “synergistic cytotoxic effect” and the “cytotoxic / chemosensitizing effect” value is given as “synergistic cytotoxic effect”.
As to `CC(=O)c1c(C)c2cnc(Nc3ccc(N4CCNCC4)cn3)nc2n(C2CCCC2)c1=O` [PD0332991, palbociclib], the “cytotoxic / chemosensitizing effect” value in data set [1] is on record as “low chemosensitizing activity”.
On to `CC[C@@]1(O)C(=O)OCc2c1cc1n(c2=O)Cc2cc3c(CN(C)C)c(O)ccc3nc2-1` [topotecan, reference compound], for which the “activity toward NCI-H69 xenografts / tumor volume (in words)” value in data set [7] (Compound T alone 100 mg/kg, topotecan 0.6 mg/kg, combination with each Compound T dose (100, 50 or 10 mg/kg), FIG. 16) was “active and reduced tumor volumes”. Further, in [7] (setting [9]), the “CR (tumor volume < 15 mm^3)” value was found to be 0, the “LTS (individual tumor volume < volume endpoint at study time endpoint)” value was found to be 1, the “MTTE ± SD (timepoint in days to reach designated tumor volume or time endpoint)” value amounted to 52 ± 7 days and the “PR (%) (tumor volume ≥ 50% regression versus Day 0)” value came to 0%. Moreover, in data set [7] (setting [9]), the “T-C (difference in days between MTTE of treatment and control groups)” value is 34 days; the “TFS (complete responder at study endpoint)” value turned out to be 0. In [7] (topotecan 0.6 mg/kg, with or without Compound T, FIG. 15), the “survival versus vehicle or Compound T only (in words)” value is recorded as “survived significantly longer than mice treated with vehicle or Compound T only”.
`C[C@@H]1CN(c2ccc(Nc3ncc4cc5n(c4n3)C3(CCCCC3)CNC5=O)nc2)C[C@H](C)N1C[C@@H](C)O` [MM]: the IC50 on CDK4/CyclinD1 (setting [8]) was determined as 1.8 nM. Also, the EC50 is 100 nM in the data set on HS68 cells (Homo sapiens, Hs68, HS68 cells); greater than 3000 nM in data set [2]; greater than 3000 nM in data set [3]; 77 nM in data set [5]; 73 nM in data set [6].

Usually EC50 stands for the concentration that produces a half-maximal response. Usually Cmax stands for the peak of the concentration-time curve.
